Where two headings read alike, the source gives them in different places.
How the values were obtained:
SF3b complexes = target: T1, SF3b complexes (Homo sapiens, UniProt O75533+Q7RTV0); test: Scintillation proximity assay (SPA) with [3H]-labelled pladienolide probe; type: binding; details: SF3B1 (WT); geometric mean; read-out: SPA-ATS GMean IC50 (nM) SF3B1 (WT)
T1 construct: endogenous in cells; host or cells: Nuclear extracts; A HeLa S3 extract preparation is described for the in vitro splicing assay
How it was run: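 SF3b complexes captured from nuclear extracts on anti-SF3B1 antibody SPA beads; test compounds pre-incubated 30 min before 2.5 nM [3H]-pladienolide probe added, then 30 min incubation. Bound probe read by scintillation; values from non-linear regression of concentration–response curves.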

[1] = tested on: Ad2 variant pre-mRNAs spliced in HeLa S3 nuclear extracts; test: In vitro splicing assay (IVS), RT-qPCR of spliced product; type: biochemical; details: for IC50: geometric mean; for Ratio Ad2.1/2.2: ratio of IVS IC50 Ad2.1 to Ad2.2
How it was run: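 Read-out is one-step TaqMan RT-qPCR of spliced Ad2 mRNA with Ftz as reference, normalized to DMSO and fit by non-linear regression. Reactions held HeLa S3 nuclear extract, 2 ng Ad2-derived pre-mRNA and test compound, with 15 min preincubation. Splicing was started with ATP-containing activation buffer and run 90 min at 30 °C.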

[2] = tested on: Panc 05.04 cells (SF3b K700E mutant); test: Cell proliferation and viability, CellTiter-Glo, 72 hours; type: cell-based; details: for GI50: geometric mean
How it was run: (§1)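 ATP luminescence (CellTiter-Glo) was measured 72 h after treatment with compound at 10 μM–100 pM (11 points, half-log) in 0.1% DMSO. The Panc line was grown in RPMI-1640 plus insulin and 15% FBS, the other in 10% FBS. Data were normalised to time zero and vehicle controls, where −100% is cidal and 0% static.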

[3] = tested on: NCI-H1568 cells (high MCL1); test: as above; type: cell-based; details: for GI50: geometric mean
How it was run: as §1

[4] = Ad2.1 pre-mRNA substrate, read-out: qPCR-IVS-ATS GMean IC50 (nM) Ad2.1
[5] = Ad2.2 pre-mRNA substrate, read-out: qPCR-IVS-ATS GMean IC50 (nM) Ad2.2
[6] = 72 h, PANC0504.1, -100% = cidal, 0% = static, 100% = uninhibited growth
[7] = Panc 05.04, 72 h, read-out: CTGlo-ATS GMean GI50 (nM) 72 h PANC0504.1, 72 h, PANC0504.1
[8] = 72 h, NCIH1568.1, -100% = cidal, 0% = static, 100% = uninhibited growth
[9] = NCI-H1568, 72 h, read-out: CTGlo-ATS GMean GI50 (nM) 72 h NCIH1568.1, 72 h, NCIH1568.1
[10] = Panc 05.04, read-out: CTGlo-ATS GMean GI50 (nM) 72 h PANC0504.1, 72 h, PANC0504.1
[11] = NCI-H1568, read-out: CTGlo-ATS GMean GI50 (nM) 72 h NCIH1568.1, 72 h, NCIH1568.1
[12] = PANC0504.1 cells, 72 h, −100% cidal, 0% static, 100% maximal growth
[13] = Panc 05.04, read-out: CTGlo-ATS GMean GI50 (nM) 72 h PANC0504.1, PANC0504.1 cells, 72 h
[14] = NCI-H1568, read-out: CTGlo-ATS GMean GI50 (nM) 72 h NCIH1568.1, NCIH1568.1 cells, 72 h
[15] = NCIH1568.1 cells, 72 h, −100% cidal, 0% static, 100% maximal growth
[16] = Panc 05.04, 72 h, read-out: CTGlo-ATS GMean GI50 (nM) 72 h PANC0504.1, PANC0504.1 cells, 72 h
[17] = NCI-H1568, 72 h, read-out: CTGlo-ATS GMean GI50 (nM) 72 h NCIH1568.1, NCIH1568.1 cells, 72 h

| Compound | IC50 (SF3b complexes) [nM] | IC50 [1, 4] [nM] | IC50 [1, 5] [nM] | Ratio Ad2.1/2.2 [1] | CTGlo-ATS Mean MinResponse % 72 h PANC0504.1 [2, 6] [%] | GI50 [2, 7] [nM] | CTGlo-ATS Mean MinResponse % 72 h NCIH1568.1 [3, 8] [%] | GI50 [3, 9] [nM] | GI50 [2, 10] [nM] | GI50 [3, 11] [nM] | CTGlo-ATS Mean MinResponse % 72 h PANC0504.1 [2, 12] [%] | GI50 [2, 13] [nM] | GI50 [3, 14] [nM] | CTGlo-ATS Mean MinResponse % 72 h NCIH1568.1 [3, 15] [%] | GI50 [2, 16] [nM] | GI50 [3, 17] [nM] |
| --- | --- | --- | --- | --- | --- | --- | --- | --- | --- | --- | --- | --- | --- | --- | --- | --- |
| C/C(=C\c1cc(F)cc(N2CCOCC2)c1)[C@H]1OC(=O)C[C@H](O)CC[C@H](C)[C@@H](OC(=O)N(C)CCC#N)/C=C/[C@@H]1C [Compound 245, [(2S,3S,4E,6R,7S,10R)-2-[(E)-1-(3-fluoro-5-morpholin-4-ylphenyl)prop-1-en-2-yl]-10-hydroxy-3,7-dimethyl-12-oxo-1-oxacyclododec-4-en-6-yl] N-(2-cyanoethyl)-N-methylcarbamate] | 17.4 | 8880 | 64.8 | 136.897 | −95.548 | 113 | −46.475 | 62.3 | – | – | – | – | – | – | – | – |
| COCC(=O)Nc1cc(F)cc(/C=C(\C)[C@H]2OC(=O)CC(O)CCC(C)[C@@H](OC(=O)N3CCN(C)CC3)/C=C/[C@@H]2C)c1 (stereo in doubt) [Compound 249, [(2S,3S,4E,6R,7R,10S)-2-[(E)-1-[3-fluoro-5-[(2-methoxyacetyl)amino]phenyl]prop-1-en-2-yl]-10-hydroxy-3,7-dimethyl-12-oxo-1-oxacyclododec-4-en-6-yl] 4-methylpiperazine-1-carboxylate] | 5.16 | 6350 | 33.6 | 188.921 | −93.297 | – | −49.016 | – | 13.8 | 14.5 | – | – | – | – | – | – |
| C/C(=C\c1cc(F)cc(N2CCOCC2)c1)[C@H]1OC(=O)C[C@H](O)CC[C@H](C)[C@@H](OC(=O)N2CCN(CCO)CC2)/C=C/[C@@H]1C [Compound 21] | 10.3 | 1610 | 52.3 | – | – | – | – | – | – | – | −90.919 | 23.6 | 31.2 | −50.841 | – | – |
| C/C(=C\c1cccc(N(C)C2CCOCC2)c1)[C@H]1OC(=O)C[C@H](O)CC[C@H](C)[C@@H](OC(=O)N2CCN(C)CC2)/C=C/[C@@H]1C [Compound 170] | 4.93 | 11000 | 31 | – | – | – | – | – | – | – | −96.570 | 23.2 | 25.9 | −56.895 | – | – |
| C/C(=C\c1cccc(S(=O)(=O)N2CCCC2)c1)[C@H]1OC(=O)C[C@H](O)CC[C@H](C)[C@@H](OC(=O)N2CCN(C)CC2)/C=C/[C@@H]1C [Compound 214, [(2S,3S,4E,6R,7S,10R)-10-hydroxy-3,7-dimethyl-12-oxo-2-[(E)-1-(3-pyrrolidin-1-ylsulfonylphenyl)prop-1-en-2-yl]-1-oxacyclododec-4-en-6-yl] 4-methylpiperazine-1-carboxylate] | 2.3 | 3920 | 19.2 | 204.217 | −91.986 | 3.29 | −48.793 | 6.37 | – | – | – | – | – | – | – | – |
| C/C(=C\c1cc(F)cc(N2CCOCC2)c1)C1OC(=O)C[C@H](O)CC[C@H](C)[C@@H](OC(=O)N2CCN(C3CCOCC3)CC2)/C=C/[C@@H]1C (stereo partly drawn) [Compound 36] | 3.49 | 236 | 32.9 | – | – | – | – | – | – | – | −84.494 | – | – | −54.389 | 19 | 25.4 |
| C/C(=C\c1cc(F)cc(N2CCO[C@@H](C)C2)c1)[C@H]1OC(=O)C[C@H](O)CC[C@H](C)[C@@H](OC(=O)N2CCN(C)CC2)/C=C/[C@@H]1C [Compound 69] | 3.83 | 36.7 | 20.9 | – | – | – | – | – | – | – | −86.274 | – | – | −76.018 | 7.48 | 4.04 |
| C/C(=C\c1cccc(COC(=O)N2CC[C@@H](F)C2)c1)[C@H]1OC(=O)C[C@H](O)CC[C@H](C)[C@@H](OC(=O)N2CCN(C)CC2)/C=C/[C@@H]1C [Compound 260] | 0.196 | > 25000 | 99.4 | 251.398 | −47.734 | – | −44.621 | – | 39.5 | 42.3 | – | – | – | – | – | – |
| C/C(=C\c1cccc(N2CCN(CCO)CC2)c1)[C@H]1OC(=O)C[C@H](O)CC[C@H](C)[C@@H](OC(=O)N2CCC(N3CCCCC3)CC2)/C=C/[C@@H]1C [Compound 263, [(2S,3S,4E,6R,7S,10R)-10-hydroxy-2-[(E)-1-[3-[4-(2-hydroxyethyl)piperazin-1-yl]phenyl]prop-1-en-2-yl]-3,7-dimethyl-12-oxo-1-oxacyclododec-4-en-6-yl] 4-piperidin-1-ylpiperidine-1-carboxylate] | 37.7 | 93.6 | 25.5 | 3.677 | −88.783 | – | −67.601 | – | 64.5 | 102 | – | – | – | – | – | – |
| C/C(=C\c1cc(F)cc(NC(=O)CC2CC2)c1)[C@H]1OC(=O)C[C@H](O)CC[C@H](C)[C@@H](OC(=O)N2CCN(C)CC2)/C=C/[C@@H]1C [Compound 250, [(2S,3S,4E,6R,7S,10R)-2-[(E)-1-[3-[(2-cyclopropylacetyl)amino]-5-fluorophenyl]prop-1-en-2-yl]-10-hydroxy-3,7-dimethyl-12-oxo-1-oxacyclododec-4-en-6-yl] 4-methylpiperazine-1-carboxylate] | 3.63 | 2190 | 44.1 | 49.517 | −94.381 | – | −58.677 | – | 23.1 | 15.6 | – | – | – | – | – | – |
| C/C(=C\c1cc(F)cc(N2CCN(C#CF)C2=O)c1)[C@H]1OC(=O)C[C@H](O)CC[C@H](C)[C@@H](OC(=O)N2CCN(C)CC2)/C=C/[C@@H]1C [Compound 66] | 2.23 | 206 | 33.9 | – | – | – | – | – | – | – | −89.623 | 8.22 | 11.7 | −64.699 | – | – |
| C/C(=C\c1cccc(S(=O)(=O)NC(C)(C)CO)c1)[C@H]1OC(=O)C[C@H](O)CC[C@H](C)[C@@H](OC(=O)N2CCN(C)CC2)/C=C/[C@@H]1C [Compound 201, [(2S,3S,4E,6R,7S,10R)-10-hydroxy-2-[(E)-1-[3-[(1-hydroxy-2-methylpropan-2-yl)sulfamoyl]phenyl]prop-1-en-2-yl]-3,7-dimethyl-12-oxo-1-oxacyclododec-4-en-6-yl] 4-methylpiperazine-1-carboxylate] | 5.64 | 620 | 17.5 | 35.485 | −91.697 | – | −48.055 | – | 40.9 | 27.5 | – | – | – | – | – | – |
| C/C(=C\c1cccc(COC(=O)N2CCOCC2)c1)[C@H]1OC(=O)C[C@H](O)CC[C@H](C)[C@@H](OC(=O)N2CCN(C)CC2)/C=C/[C@@H]1C [Compound 257, [3-[(E)-2-[(2S,3S,4E,6R,7S,10R)-10-hydroxy-3,7-dimethyl-6-(4-methylpiperazine-1-carbonyl)oxy-12-oxo-1-oxacyclododec-4-en-2-yl]prop-1-enyl]phenyl]methyl morpholine-4-carboxylate] | 5.75 | > 25000 | 117 | 213.903 | −75.412 | 71.5 | −4.151 | 266 | – | – | – | – | – | – | – | – |
